Holding throughout (conditions): average where tested multiple times
Assay [1] addresses T1, BCAT2 (Homo sapiens, UniProt O15382).
T1 sequence (O15382 28-392): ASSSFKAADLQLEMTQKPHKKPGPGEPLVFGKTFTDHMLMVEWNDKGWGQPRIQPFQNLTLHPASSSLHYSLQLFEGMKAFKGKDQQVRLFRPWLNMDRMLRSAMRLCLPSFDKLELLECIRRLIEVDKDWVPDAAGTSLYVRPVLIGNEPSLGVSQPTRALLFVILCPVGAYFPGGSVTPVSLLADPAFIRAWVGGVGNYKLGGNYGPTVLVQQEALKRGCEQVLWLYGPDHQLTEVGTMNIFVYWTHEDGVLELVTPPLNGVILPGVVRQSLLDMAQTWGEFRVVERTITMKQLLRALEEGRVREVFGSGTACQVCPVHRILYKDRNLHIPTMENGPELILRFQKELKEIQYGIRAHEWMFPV
The experiment in a line: BCAT2 in vitro enzyme inhibition assay (resazurin/diaphorase-coupled fluorescence). It is filed as biochemical. The method in brief:
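Coupled fluorescence readout: glutamate formed from L-leucine/α-ketoglutarate transamination drives GDH/NAD/diaphorase reduction of resazurin (Ex 540/Em 590). Human BCAT2 was first exposed 1 h at room temperature to compound, top final 100 μM in 3-fold, 10-point series; substrate reaction ran 1 h before SDS quench, in technical duplicate with DMSO max and enzyme-free min controls.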
On the technique in general: The colour change of resazurin is a common sign of viable cells or microbes.

Assay [2] concerns the target T2, hBCAT1 (Homo sapiens, UniProt P54687).
T2 sequence (P54687 1-386): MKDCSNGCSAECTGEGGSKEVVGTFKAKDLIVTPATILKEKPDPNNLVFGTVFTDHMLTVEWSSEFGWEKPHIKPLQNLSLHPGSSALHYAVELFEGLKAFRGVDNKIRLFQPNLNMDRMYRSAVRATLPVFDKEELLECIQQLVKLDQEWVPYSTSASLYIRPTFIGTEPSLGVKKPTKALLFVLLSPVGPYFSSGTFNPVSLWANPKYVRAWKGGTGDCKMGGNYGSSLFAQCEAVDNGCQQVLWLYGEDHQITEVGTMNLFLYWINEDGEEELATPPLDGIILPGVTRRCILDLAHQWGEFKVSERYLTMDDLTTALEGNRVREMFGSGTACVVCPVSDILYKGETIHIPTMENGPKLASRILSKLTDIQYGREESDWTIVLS
The assay can be described thus: BCAT1 in vitro enzyme inhibition assay (resazurin/diaphorase-coupled fluorescence). It is filed as biochemical. The gist of the method: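 Human BCAT1 activity read by resazurin/diaphorase-coupled fluorescence. Compounds added from 50× DMSO stocks at 1:50, giving 10-point 3-fold titrations from 100 μM top final concentration. Run in technical duplicate; repeat tests averaged.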

The target in assay [3] is T1, BCAT2. The experiment in a line: BCAT2 in vitro cell inhibition using engineered A549 cells (KMV cell assay, 13C6-KMV by LC-MS/MS). The assay is classed as cell-based. The arrangement: The result was an engineered A549 cell line that expressed endogenous BCAT2; endogenous in cells; host or cells: A549 cells with MUT and BCAT1 knocked out by CRISPR/CAS9.

Bounds are passed on as bounds.

Usually IC50 stands for the concentration that gives 50% inhibition. Consider `O=C(N[C@H]1CCC[C@@H](n2c(-c3ccccn3)nc3cc(-n4ccnn4)ncc32)C1)c1ccc(Br)s1` [Example 152, 5-bromo-N-((1S,3R)-3-(2-(pyridin-2-yl)-6-(1H-1,2,3-triazol-1-yl)-3H-imidazo[4,5-c]pyridin-3-yl)cyclohexyl)thiophene-2-carboxamide], for which the IC50 was no more than 100 nM in assay [1], 500 to 1000 nM in assay [2] and no more than 100 nM in assay [3].

Take `O=C(N[C@H]1CCC[C@@H](n2c(COC(F)(F)F)nc3cnc(-n4nccn4)cc32)C1)c1ncc(Cl)s1` [Example 315, N-((1S,3R)-3-(6-(2H-1,2,3-triazol-2-yl)-2-((trifluoromethoxy)methyl)-1H-imidazo[4,5-c]pyridin-1-yl)cyclohexyl)-5-chlorothiazole-2-carboxamide]: the IC50 in assay [1] is no more than 100 nM; in assay [2] it was 500 to 1000 nM; in assay [3] it was 100 to 500 nM.

On to `O=C(N[C@H]1CCC[C@@H](n2c(-c3ncccc3F)nc3cnc(-n4ccnn4)nc32)C1)c1ncc(C(F)F)s1` [Example 59, 5-(difluoromethyl)-N-((1S,3R)-3-(8-(3-fluoropyridin-2-yl)-2-(1H-1,2,3-triazol-1-yl)-9H-purin-9-yl)cyclohexyl)thiazole-2-carboxamide], for which the IC50 in assay [1] is 100 to 500 nM; in assay [2], greater than 5000 nM; in assay [3], greater than 1000 nM.

`Cc1nc(-c2cc3c(cn2)nc(CC(C)C)n3[C@@H]2CCC[C@H](NC(=O)c3ncc(Cl)s3)C2)cs1` [Example 158, 5-chloro-N-((1S,3R)-3-(2-isobutyl-6-(2-methylthiazol-4-yl)-1H-imidazo[4,5-c]pyridin-1-yl)cyclohexyl)thiazole-2-carboxamide]: the IC50 is no more than 100 nM in assay [1], 1000 to 5000 nM in assay [2] and greater than 1000 nM in assay [3].

Turning to `O=C(N[C@H]1CCC[C@@H](n2c(-c3ccccc3F)nc3cnc(-n4ccnn4)cc32)C1)c1ncc(C(F)F)s1` [Example 38, 5-(difluoromethyl)-N-((1S,3R)-3-(2-(2-fluorophenyl)-6-(1H-1,2,3-triazol-1-yl)-1H-imidazo[4,5-c]pyridin-1-yl)cyclohexyl)thiazole-2-carboxamide], the IC50 in assay [1] is no more than 100 nM; in assay [2] it was 1000 to 5000 nM; in assay [3], 100 to 500 nM.

As for `O=C(NC1CCCC(n2c(-c3ccccn3)nc3cnc(-c4cnco4)cc32)C1)c1ccc(Br)s1` (stereo not shown) [Example 3, 5-bromo-N-(3-(6-(oxazol-5-yl)-2-(pyridin-2-yl)-1H-imidazo[4,5-c]pyridin-1-yl)cyclohexyl)thiophene-2-carboxamide], the IC50 in assay [1] was no more than 100 nM; in assay [2] it was 1000 to 5000 nM; in assay [3], 100 to 500 nM.

On to `C#Cc1cnc(C(=O)N[C@H]2CCC[C@@H](n3c(-c4ccccc4F)nc4cnc(-c5ncco5)cc43)C2)s1` [Example 8, 5-ethynyl-N-((1S,3R)-3-(2-(2-fluorophenyl)-6-(oxazol-2-yl)-1H-imidazo[4,5-c]pyridin-1-yl)cyclohexyl)thiazole-2-carboxamide], for which the IC50 in assay [1] was no more than 100 nM; in assay [2], less than 500 nM; in assay [3], no more than 100 nM.

As for `O=C(NC1CCC(n2c(-c3ccccn3)nc3cnc(-n4ccnn4)cc32)C1)c1ccc(Br)s1` (stereo not shown) [Example 94, 5-bromo-N-(3-(2-(pyridin-2-yl)-6-(1H-1,2,3-triazol-1-yl)-1H-imidazo[4,5-c]pyridin-1-yl)cyclopentyl)thiophene-2-carboxamide], the IC50 in assay [1] is greater than 1000 nM; in assay [2], greater than 5000 nM.

Turning to `O=C(N[C@H]1CCC[C@@H](n2c(-c3ccccn3)nc3cc(-n4cncn4)ncc32)C1)c1ccc(Br)s1` [Example 150, 5-bromo-N-((1S,3R)-3-(2-(pyridin-2-yl)-6-(1H-1,2,4-triazol-1-yl)-3H-imidazo[4,5-c]pyridin-3-yl)cyclohexyl)thiophene-2-carboxamide], the results for the half-maximal inhibitory concentration (IC50) in assay [1] and in assay [2] were 500 to 1000 nM and greater than 5000 nM, respectively.

For the origin of these results see US20260159512A1, “BCAT2 INHIBITORS” (AGIOS PHARMACEUTICALS, INC., priority 2021, published 2026).
